The values that follow come from patent US8969373B2, “HCV protease inhibitors” (Shanghai Tangrun Pharmaceuticals Co., Ltd., priority 2011, dated 2015).

Assay [1] has as its system HCV replicon (pSGR-399LM) in Huh7 cells. Description: Inhibitory activity in the HCV replicon system (Renilla luciferase). The format is cell-based. The following applies: Hepatitis C virus, Huh-7, pSGR-399LM replicon Huh7 cells, 72 hr. As to the method: The Inhibitory Activity of Compounds in the HCV Replicon System
HCV replicon cell-line: The Huh7 cells were transfected with pSGR-399LM replicon DNA and cultured in the DMEM containing 10% FBS and 0.5 mg/mL G418. The cells were split at 1:3 to 1:5 every 3-4 days. The transfected cells were seeded in 96-well plates and cultured at 37° C., 5% CO2 for 24 hr.
Treatment with samples: To the HCV replicon Huh7 cells-line were added different concentration of the samples (i.e. compound Ik, wherein k=1, 2, 3 . . . 42), the each concentration for duplicate, and set no sample control wells. The concentration started at 400 nM, with quarter dilution to form five different concentrations of samples, that is 400 nM, 100 nM, 25 nM, 6.25 nM and 1.56 nM. The samples were added separately, and continued to incubated for 72 hr.
Fluorescence detection: After 72 hr treatment with sample, the cells were lysed and added with Renilla luciferase substrate to detect luminescent signal. The relative luminescent unit (RLU) in the luminometer was read out and used to calculate the inhibition rate of HCV.

The subject of assay [2] is HCV (J399EM virus) in Huh7.5.1 cells. Put plainly: Inhibition of HCV replication in HCV infected human hepatocellular carcinoma cells (Huh7.5.1), HCV-EGFP fluorescence. The format is cell-based. Particulars: Hepatitis C virus, Huh-7.5.1, 72 h, read-out: HCV infected human hepatocellular carcinoma cells in vitro EC50(nM). As to the method:
In Vitro Inhibitory Activity of Compounds in HCV Replication in HCV Infected Human Hepatocellular Carcinoma Cells (Huh7.5.1)
The preparation of Huh7.5.1cells: Huh 7.5.1 cells were seeded at a 96-well plate with 37 and 5% CO2 for 24 hours incubation.
Virus infection: Using the J399EM virus supernatants (moi≈0.1) to infect Huh7.5.1cells. At the same time, the no virus infected cell will be set up as the control. After 8 hours virus infection, the virus will be washed out with PBS.
Drug treatment: The different doses of samples (i.e. the compound Ik, wherein k=1, 2, 3, . . . 42) were added in J399EM infected Huh7.5.1 cells, the each dose for duplicate. At the same time the no sample added in wells will be set up as the control. The test dose of sample is starting from 25 nM or 400 nM, with quarter dilution, 5 doses of sample will be added in the test wells, respectively, then continued for 72 hours incubation.
HCV-EGFP fluorescence detection: After samples treatment for 72 hours, the autofluorescence of HCV-EGFP were measured by the luminometer with excitation of 488 nm, and emission of 516 nm. The related fluorescence unit (RFU) of samples will be read out and used for calculating the inhibitory rates of compounds in HCV replication.

`C=C[C@@H]1C[C@]1(NC(=O)[C@@H]1C[C@@H](Oc2cc(-c3ccccc3)nc3c2sc2cccc(Cl)c23)CN1C(=O)[C@@H](NC(=O)OC(C)(C)C)C(C)(C)C)C(=O)NS(=O)(=O)C1CC1` [Compound 1]: the EC50 in assay [1] and in assay [2] was 100 to 1000 nM throughout.
Turning to `C=C[C@@H]1C[C@]1(NC(=O)[C@@H]1C[C@@H](Oc2cc(-c3ccccc3)nc3c2oc2ccc(OC)cc23)CN1C(=O)[C@@H](NC(=O)OC(C)(C)C)C(C)(C)C)C(=O)NS(=O)(=O)C1CC1` [Compound 3, tert-butyl(S)-1-((2S,4R)-2-((1R,2S)-1-(cyclopropylsulfonylcarbamoyl)-2-vinylcyclopropylcarbamoyl)-4-(8-methoxy-2-phenylbenzofuro [3,2-b]pyridin-4-yloxy)pyrrolidin-1-yl)-3,3-dimethyl-1-oxobutan-2-yl carbamate], the figures for the EC50 in assay [1] and in assay [2] were less than 100 nM and 100 to 1000 nM, respectively.
Consider `C=C[C@@H]1C[C@]1(NC(=O)[C@@H]1C[C@@H](Oc2cc(-c3ccccc3)nc3c2oc2ccc(Cl)cc23)CN1C(=O)[C@@H](NC(=O)OC(C)(C)C)C(C)(C)C)C(=O)NS(=O)(=O)C1CC1` [Compound 4, tert-butyl(S)-1-((2S,4R)-4-(8-chloro-2-phenylbenzofuro[3,2-b]pyridin-4-yloxy)-2-((1R,2S)-1-(cyclopropylsulfonylcarbamoyl)-2-vinylcyclopropylcarbamoyl)pyrrolidin-1-yl)-3,3-dimethyl-1-oxobutan-2-yl carbamate], for which the EC50 was less than 100 nM in assay [1] and 100 to 1000 nM in assay [2].
For `CC(C)(C)OC(=O)N[C@H]1CCCCC/C=C\[C@@H]2C[C@@]2(C(=O)NS(=O)(=O)C2CC2)NC(=O)[C@@H]2C[C@@H](Oc3nc4c5ccccc5oc4c4ccccc34)CN2C1=O` [Compound 6], the EC50 in assay [1] and in assay [2] was less than 100 nM each time.
Take `C=C[C@@H]1C[C@]1(NC(=O)[C@@H]1C[C@@H](Oc2cc(-c3ccccc3)nc3c2sc2cc(F)ccc23)CN1C(=O)[C@@H](NC(=O)OC(C)(C)C)C(C)(C)C)C(=O)NS(=O)(=O)C1CC1` [Compound 7]: the concentration for a half-maximal effect (EC50) in assay [1] and in assay [2] was less than 100 nM in each case.
On to `C=C[C@@H]1C[C@]1(NC(=O)[C@@H]1C[C@@H](Oc2cc(-c3ccccc3)nc3c2oc2ccc(Br)cc23)CN1C(=O)[C@@H](NC(=O)OC(C)(C)C)C(C)(C)C)C(=O)NS(=O)(=O)C1CC1` [Compound 8], for which the 50% effective concentration (EC50) in assay [1] was less than 100 nM; in assay [2], 100 to 1000 nM.
`C=C[C@@H]1C[C@]1(NC(=O)[C@@H]1C[C@@H](Oc2cc(-c3ccccc3)nc3c2sc2ccccc23)CN1C(=O)[C@@H](NC(=O)OC(C)(C)C)C(C)(C)C)C(=O)NS(=O)(=O)C1CC1` [Compound 9]: the EC50 in assay [1] is less than 100 nM; in assay [2] it was 100 to 1000 nM.
For `CC(C)(C)OC(=O)N[C@H]1CCCCC/C=C\[C@@H]2C[C@@]2(C(=O)NS(=O)(=O)C2CC2)NC(=O)[C@@H]2C[C@@H](Oc3nc4c5ccc(F)cc5sc4c4ccccc34)CN2C1=O` [Compound 10], the EC50 in assay [1] and in assay [2] was less than 100 nM each time.
As for `C=C[C@@H]1C[C@]1(NC(=O)[C@@H]1C[C@@H](Oc2nc3c4cc(Cl)ccc4oc3c3ccccc23)CN1C(=O)[C@@H](NC(=O)OC(C)(C)C)C(C)(C)C)C(=O)NS(=O)(=O)C1CC1` [Compound 11], the EC50 in assay [1] was less than 100 nM; in assay [2], 100 to 1000 nM.
With `C=C[C@@H]1C[C@]1(NC(=O)[C@@H]1C[C@@H](Oc2nc3c4ccc(F)cc4sc3c3ccccc23)CN1C(=O)[C@@H](NC(=O)OC(C)(C)C)C(C)(C)C)C(=O)NS(=O)(=O)C1CC1` [Compound 12], the EC50 in assay [1] is less than 100 nM; in assay [2], 100 to 1000 nM.
Regarding `C=C[C@@H]1C[C@]1(NC(=O)[C@@H]1C[C@@H](Oc2nc3c4cc(Cl)ccc4oc3c3ccccc23)CN1C(=O)[C@@H](CC(=O)OC(C)(C)C)C(C)(C)C)C(=O)NS(=O)(=O)C1CC1` [Compound 13], the concentration giving a half-maximal response (EC50) in assay [1] and in assay [2] was 100 to 1000 nM each time.
Turning to `C=C[C@@H]1C[C@]1(NC(=O)[C@@H]1C[C@@H](Oc2nc3c4cc(Cl)ccc4oc3c3ccccc23)CN1C(=O)[C@@H](CC(=O)N1CCCCC1)C(C)(C)C)C(=O)NS(=O)(=O)C1CC1` [Compound 14, (2S,4R)-1-((S)-2-tert-butyl-4-oxo-4-(piperidin-1-yl)butanoyl)-4-(8-chlorobenzofuro[3,2-c]isoquinolin-5-yloxy)-N-((1R,2S)-1-(cyclopropylsulfonylcarbamoyl)-2-vinylcyclopropyl)pyrrolidine-2-carboxamide], the results for the EC50 in assay [1] and in assay [2] were less than 100 nM and 100 to 1000 nM, respectively.
As for `C=C[C@@H]1C[C@]1(NC(=O)[C@@H]1C[C@@H](Oc2nc3c4cc(OC)ccc4oc3c3ccccc23)CN1C(=O)[C@@H](NC(=O)OC(C)(C)C)C(C)(C)C)C(=O)NS(=O)(=O)C1CC1` [Compound 15], the EC50 in assay [1] and in assay [2] was 100 to 1000 nM each time.
Take `CC(C)(C)OC(=O)N[C@H]1CCCCC/C=C\[C@@H]2C[C@@]2(C(=O)NS(=O)(=O)C2CC2)NC(=O)[C@@H]2C[C@@H](Oc3nc4c5ccccc5oc4c4ccc(Br)cc34)CN2C1=O` [Compound 16]: the EC50 in assay [1] and in assay [2] was less than 100 nM throughout.
For the molecule `CC(C)(C)OC(=O)N[C@H]1CCCCC/C=C\[C@@H]2C[C@@]2(C(=O)NS(=O)(=O)C2CC2)NC(=O)[C@@H]2C[C@@H](Oc3nc4c5ccccc5oc4c4ccc(Cl)cc34)CN2C1=O` [Compound 17], the EC50 in assay [1] and in assay [2] was less than 100 nM throughout.
In the case of `COc1ccc2oc3c4ccc(Cl)cc4c(O[C@@H]4C[C@H]5C(=O)N[C@]6(C(=O)NS(=O)(=O)C7CC7)C[C@H]6/C=C\CCCCC[C@H](NC(=O)OC(C)(C)C)C(=O)N5C4)nc3c2c1` [Compound 19], the EC50 in assay [1] and in assay [2] was less than 100 nM each time.
As for `C=C[C@@H]1C[C@]1(NC(=O)[C@@H]1C[C@@H](Oc2nc3c4ccccc4oc3c3ccc(Cl)cc23)CN1C(=O)[C@@H](NC(=O)OC1CCCC1)C(C)(C)C)C(=O)NS(=O)(=O)C1CC1` [Compound 20], the EC50 in assay [1] and in assay [2] was less than 100 nM throughout.
In the case of `C=C[C@@H]1C[C@]1(NC(=O)[C@@H]1C[C@@H](Oc2cc(-c3ccccc3)nc3c2oc2ccc(OC)cc23)CN1C(=O)[C@@H](NC(=O)OC1CCCC1)C(C)(C)C)C(=O)NS(=O)(=O)C1CC1` [Compound 21], the EC50 in assay [1] was less than 100 nM; in assay [2], 100 to 1000 nM.
For `C=C[C@@H]1C[C@]1(NC(=O)[C@@H]1C[C@@H](Oc2cc(-c3ccccc3)nc3c2oc2ccc(OC)c(Cl)c23)CN1C(=O)[C@@H](NC(=O)OC1CCCC1)C(C)(C)C)C(=O)NS(=O)(=O)C1CC1` [Compound 22], the 50% effective concentration (EC50) in assay [1] and in assay [2] was less than 100 nM each time.
Turning to `C=C[C@@H]1C[C@]1(NC(=O)[C@@H]1C[C@@H](Oc2cc(-c3ccccc3)nc3c2oc2ccc(OC)c(Cl)c23)CN1C(=O)[C@@H](NC(=O)OC(C)(C)C)C(C)(C)C)C(=O)NS(=O)(=O)C1CC1` [Compound 23], the EC50 in assay [1] and in assay [2] was less than 100 nM in each case.
As for `C=C[C@@H]1C[C@]1(NC(=O)[C@@H]1C[C@@H](Oc2cc(-c3csc(C(C)C)n3)nc3c2oc2ccc(OC)c(Cl)c23)CN1C(=O)[C@@H](NC(=O)OC(C)(C)C)C(C)(C)C)C(=O)NS(=O)(=O)C1CC1` [Compound 24], the EC50 in assay [1] and in assay [2] was less than 100 nM throughout.
For the molecule `C=C[C@@H]1C[C@]1(NC(=O)[C@@H]1C[C@@H](Oc2cc(-c3csc(C(C)(C)O)n3)nc3c2oc2ccc(OC)c(Cl)c23)CN1C(=O)[C@@H](NC(=O)OC(C)(C)C)C(C)(C)C)C(=O)NS(=O)(=O)C1CC1` [Compound 25], the EC50 in assay [1] and in assay [2] was less than 100 nM each time.
